# Reference: US3973021A, “2-[2-(5-Nitro-2-furyl)vinyl]-4-(phydroxyanilino)quinazoline as a bactericide” (Diamond Shamrock Corporation, priority 1975, dated 1976)
# What was measured:
# [1] = Example XII: 4 week chick feeding test, first set (Table VI); assay type: in vivo, broiler cross chicks
# From the text: (§1) This example compares growth promotion activity of the product of Example I with other growth promotants at a concentration of 25 g/T in the Basal Ration described in Example VII. The other growth promotants include the product described in Example I of U.S. Pat. No. 3,542,784 -- Burch and quinoxaline-1,4-dioxide. Day old broiler cross chicks were weight equalized into groups of 8 chicks each, and four replicates of 8 chicks each were fed the experimental rations over a 4 week period.
# The growth promotion tests described in Example X were repeated with the additional testing the products of Examples II and III.
# Escherichia coli = assay: Bactericide test (agar streak, growth inhibition rated 0/50/100); assay type: cell-based
# From the text: (§2) Test formulations were examined for bactericidal and/or bacteriostatic activity against the test organisms shown in Tables A and B. These organisms were chosen as being representative of commercially important pathogens affecting animal agriculture. The antibiotic chlortetracycline was chosen as a positive control, since it has a broad spectrum of activity against a large number of organisms, and its activity can be used for comparative purposes.
# (§3) Basic test formulations of the product of Examples I, II, III, and of chlortetracycline were prepared by dissolving 16 mg (0.016 g) in 2.0 ml of stock emulsifier solution (0.25% Triton X-155 in acetone by volume) and making each solution up to 50 ml with deionized water. The concentration of the test compound in the basic formulation was 320 ppm. Lower concentrations of the test compound were obtained by diluting the basic formulation with a 4% solution of the stock emulsifier in deionized water so that each dilution in the series differed only in test compound content.
# (§4) Nutrient-tryptic soy agar (NTA) consisting of 2.0% Difco Bactoagar 0.8% nutrient broth (Difco), and 0.5% tryptic soy broth (Difco) was prepared and sterilized by autoclaving. A 2 ml aliquot of each test formulation was added to 8 ml of molten NTA. This mixture was then plated in a sterile polystyrene petri dish (100 × 15 mm). After the agar was set, suspensions of each of the test organisms were simultaneously streaked onto the surface of the agar. The inoculated plates were incubated for 48 hr. at 28°C. The inhibition of growth of each organism was rated by visual comparison with the organism developing on non-treated agar. Growth inhibition reported as percent control was rated in three categories as follows: 0% control, growth equivalent to that on non-treated agar; 50% control, sparse development and separated colonies; 100% control, no visible growth or development of colonies.
# (§5) Test formulations of the product of Example IV were examined for bactericidal and/or bacteriostatic activity against the test organisms shown in Table B using the Bactericide Test described in Example V. The inhibition of organism growth with each diluted test formulation was rated visually by comparison with the organism developing on a non-treated control agar plate. Growth inhibition reported as percent control was rated in three categories as follows: 0% control, growth equivalent to that on non-treated agar; 50% control is sparse development and separated colonies; and 100% control, development of individual colonies was not apparent.
# Salmonella gallinarum = assay: as above; assay type: cell-based; details: Salmonella enterica
# From the text: as §2, §3, §4, §5
# Staphylococcus aureus = assay: as above; assay type: cell-based
# From the text: as §2, §3, §4, §5
# Salmonella cholerasuis = assay: as above; assay type: cell-based
# From the text: as §2, §3, §4, §5
# Streptococcus faecalis = assay: as above; assay type: cell-based; details: Enterococcus faecalis
# From the text: as §2, §3, §4, §5
# Salmonella typhimurium = assay: as above; assay type: cell-based; details: Salmonella enterica
# From the text: as §2, §3, §4
# Vibrio coli = assay: as above; assay type: cell-based; details: Campylobacter coli
# From the text: as §2, §3, §4
# Streptococcus group E = assay: as above; assay type: cell-based
# From the text: as §2, §3, §4
# [2] = test system: Erysipelothrix rhusiopathiae; assay: as above; assay type: cell-based
# From the text: as §2, §3, §4
# Streptococcus agalactiae = assay: as above; assay type: cell-based
# From the text: as §2, §3, §4
# [3] = test system: Bordetella bronchiseptica; assay: as above; assay type: cell-based
# From the text: as §2, §3, §4
# [4] = Example XII: 4 week chick feeding test, repeat with five replicates (Table VII); assay type: in vivo, broiler cross chicks; details: for Average 4 Week Performance: Feed Efficiency / Average 4 Week Performance: Gain / Improved Response Over Basal Ration: Feed Efficiency / Improved Response Over Basal Ration: Gain: 25g/T
# [5] = Example X: 4 week chick feeding test, 25 g/T; assay type: in vivo, broiler cross chicks
# From the text: as §1
smiles,measurement,setting,value
"O=[N+]([O-])c1ccc(C=Cc2nc(Nc3ccccc3O)c3ccccc3n2)o1 [Example III, 2-[2-(5-nitro-furyl)vinyl]-4-(o-hydroxyanilino)quinazoline]",Average 4 Week Performance: Feed Efficiency,[1]; 25g/T,1.597
same,Average 4 Week Performance: Gain,[1]; 25g/T,766.9 g
same,Improved Response Over Basal Ration: Feed Efficiency,[1]; 25g/T,+2.3%
same,Improved Response Over Basal Ration: Gain,[1]; 25g/T,+3.1%
same,inhibition at 0.125 ppm,Escherichia coli; 0.125 ppm,0%
same,inhibition at 0.25 ppm,Escherichia coli; 0.25 ppm,0%
same,inhibition at 0.5 ppm,Escherichia coli; 0.5 ppm,0%
same,inhibition at 1 ppm,Escherichia coli; 1 ppm,0%
same,inhibition at 2 ppm,Escherichia coli; 2 ppm,0%
same,inhibition at 4 ppm,Escherichia coli; 4 ppm,0%
same,inhibition at 8 ppm,Escherichia coli; 8 ppm,0%
same,inhibition at 16 ppm,Escherichia coli; 16 ppm,0%
same,inhibition at 32 ppm,Escherichia coli; 32 ppm,0%
same,inhibition at 64 ppm,Escherichia coli; 64 ppm,0%
same,inhibition at 0.125 ppm,Salmonella gallinarum; 0.125 ppm,0%
same,inhibition at 0.25 ppm,Salmonella gallinarum; 0.25 ppm,0%
same,inhibition at 0.5 ppm,Salmonella gallinarum; 0.5 ppm,0%
same,inhibition at 1 ppm,Salmonella gallinarum; 1 ppm,0%
same,inhibition at 2 ppm,Salmonella gallinarum; 2 ppm,0%
same,inhibition at 4 ppm,Salmonella gallinarum; 4 ppm,50%
same,inhibition at 8 ppm,Salmonella gallinarum; 8 ppm,50%
same,inhibition at 16 ppm,Salmonella gallinarum; 16 ppm,100%
same,inhibition at 32 ppm,Salmonella gallinarum; 32 ppm,100%
same,inhibition at 64 ppm,Salmonella gallinarum; 64 ppm,100%
same,inhibition at 0.125 ppm,Staphylococcus aureus; 0.125 ppm,0%
same,inhibition at 0.25 ppm,Staphylococcus aureus; 0.25 ppm,0%
same,inhibition at 0.5 ppm,Staphylococcus aureus; 0.5 ppm,0%
same,inhibition at 1 ppm,Staphylococcus aureus; 1 ppm,0%
same,inhibition at 2 ppm,Staphylococcus aureus; 2 ppm,0%
same,inhibition at 4 ppm,Staphylococcus aureus; 4 ppm,0%
same,inhibition at 8 ppm,Staphylococcus aureus; 8 ppm,0%
same,inhibition at 16 ppm,Staphylococcus aureus; 16 ppm,0%
same,inhibition at 32 ppm,Staphylococcus aureus; 32 ppm,0%
same,inhibition at 64 ppm,Staphylococcus aureus; 64 ppm,0%
same,inhibition at 0.125 ppm,Salmonella cholerasuis; 0.125 ppm,0%
same,inhibition at 0.25 ppm,Salmonella cholerasuis; 0.25 ppm,0%
same,inhibition at 0.5 ppm,Salmonella cholerasuis; 0.5 ppm,0%
same,inhibition at 1 ppm,Salmonella cholerasuis; 1 ppm,0%
same,inhibition at 2 ppm,Salmonella cholerasuis; 2 ppm,0%
same,inhibition at 4 ppm,Salmonella cholerasuis; 4 ppm,50%
same,inhibition at 8 ppm,Salmonella cholerasuis; 8 ppm,50%
same,inhibition at 16 ppm,Salmonella cholerasuis; 16 ppm,100%
same,inhibition at 32 ppm,Salmonella cholerasuis; 32 ppm,100%
same,inhibition at 64 ppm,Salmonella cholerasuis; 64 ppm,100%
same,inhibition at 0.125 ppm,Streptococcus faecalis; 0.125 ppm,0%
same,inhibition at 0.25 ppm,Streptococcus faecalis; 0.25 ppm,0%
same,inhibition at 0.5 ppm,Streptococcus faecalis; 0.5 ppm,50%
same,inhibition at 1 ppm,Streptococcus faecalis; 1 ppm,100%
same,inhibition at 2 ppm,Streptococcus faecalis; 2 ppm,100%
same,inhibition at 4 ppm,Streptococcus faecalis; 4 ppm,100%
same,inhibition at 8 ppm,Streptococcus faecalis; 8 ppm,100%
same,inhibition at 16 ppm,Streptococcus faecalis; 16 ppm,100%
same,inhibition at 32 ppm,Streptococcus faecalis; 32 ppm,100%
same,inhibition at 64 ppm,Streptococcus faecalis; 64 ppm,100%
same,inhibition at 0.125 ppm,Salmonella typhimurium; 0.125 ppm,0%
same,inhibition at 0.25 ppm,Salmonella typhimurium; 0.25 ppm,0%
same,inhibition at 0.5 ppm,Salmonella typhimurium; 0.5 ppm,0%
same,inhibition at 1 ppm,Salmonella typhimurium; 1 ppm,0%
same,inhibition at 2 ppm,Salmonella typhimurium; 2 ppm,0%
same,inhibition at 4 ppm,Salmonella typhimurium; 4 ppm,0%
same,inhibition at 8 ppm,Salmonella typhimurium; 8 ppm,0%
same,inhibition at 16 ppm,Salmonella typhimurium; 16 ppm,0%
same,inhibition at 32 ppm,Salmonella typhimurium; 32 ppm,0%
same,inhibition at 64 ppm,Salmonella typhimurium; 64 ppm,0%
same,inhibition at 0.125 ppm,Vibrio coli; 0.125 ppm,100%
same,inhibition at 0.25 ppm,Vibrio coli; 0.25 ppm,100%
same,inhibition at 0.5 ppm,Vibrio coli; 0.5 ppm,100%
same,inhibition at 1 ppm,Vibrio coli; 1 ppm,100%
same,inhibition at 2 ppm,Vibrio coli; 2 ppm,100%
same,inhibition at 4 ppm,Vibrio coli; 4 ppm,100%
same,inhibition at 8 ppm,Vibrio coli; 8 ppm,100%
same,inhibition at 16 ppm,Vibrio coli; 16 ppm,100%
same,inhibition at 32 ppm,Vibrio coli; 32 ppm,100%
same,inhibition at 64 ppm,Vibrio coli; 64 ppm,100%
same,inhibition at 0.125 ppm,Streptococcus group E; 0.125 ppm,100%
same,inhibition at 0.25 ppm,Streptococcus group E; 0.25 ppm,100%
same,inhibition at 0.5 ppm,Streptococcus group E; 0.5 ppm,100%
same,inhibition at 1 ppm,Streptococcus group E; 1 ppm,100%
same,inhibition at 2 ppm,Streptococcus group E; 2 ppm,100%
same,inhibition at 4 ppm,Streptococcus group E; 4 ppm,100%
same,inhibition at 8 ppm,Streptococcus group E; 8 ppm,100%
same,inhibition at 16 ppm,Streptococcus group E; 16 ppm,100%
same,inhibition at 32 ppm,Streptococcus group E; 32 ppm,100%
same,inhibition at 64 ppm,Streptococcus group E; 64 ppm,100%
same,inhibition at 0.125 ppm,[2]; 0.125 ppm,100%
same,inhibition at 0.25 ppm,[2]; 0.25 ppm,100%
same,inhibition at 0.5 ppm,[2]; 0.5 ppm,100%
same,inhibition at 1 ppm,[2]; 1 ppm,100%
same,inhibition at 2 ppm,[2]; 2 ppm,100%
same,inhibition at 4 ppm,[2]; 4 ppm,100%
same,inhibition at 8 ppm,[2]; 8 ppm,100%
same,inhibition at 16 ppm,[2]; 16 ppm,100%
same,inhibition at 32 ppm,[2]; 32 ppm,100%
same,inhibition at 64 ppm,[2]; 64 ppm,100%
same,inhibition at 0.125 ppm,Streptococcus agalactiae; 0.125 ppm,100%
same,inhibition at 0.25 ppm,Streptococcus agalactiae; 0.25 ppm,100%
same,inhibition at 0.5 ppm,Streptococcus agalactiae; 0.5 ppm,100%
same,inhibition at 1 ppm,Streptococcus agalactiae; 1 ppm,100%
same,inhibition at 2 ppm,Streptococcus agalactiae; 2 ppm,100%
same,inhibition at 4 ppm,Streptococcus agalactiae; 4 ppm,100%
same,inhibition at 8 ppm,Streptococcus agalactiae; 8 ppm,100%
same,inhibition at 16 ppm,Streptococcus agalactiae; 16 ppm,100%
same,inhibition at 32 ppm,Streptococcus agalactiae; 32 ppm,100%
same,inhibition at 64 ppm,Streptococcus agalactiae; 64 ppm,100%
same,inhibition at 0.125 ppm,[3]; 0.125 ppm,100%
same,inhibition at 0.25 ppm,[3]; 0.25 ppm,100%
same,inhibition at 0.5 ppm,[3]; 0.5 ppm,100%
same,inhibition at 1 ppm,[3]; 1 ppm,100%
same,inhibition at 2 ppm,[3]; 2 ppm,100%
same,inhibition at 4 ppm,[3]; 4 ppm,100%
same,inhibition at 8 ppm,[3]; 8 ppm,100%
same,inhibition at 16 ppm,[3]; 16 ppm,100%
same,inhibition at 32 ppm,[3]; 32 ppm,100%
same,inhibition at 64 ppm,[3]; 64 ppm,100%
same,Average 4 Week Performance: Feed Efficiency,[4],1.669
same,Average 4 Week Performance: Gain,[4],723.7 g
same,Improved Response Over Basal Ration: Feed Efficiency,[4],+6.5%
same,Improved Response Over Basal Ration: Gain,[4],+6.0%
"O=[N+]([O-])c1ccc(-c2nc(Nc3ccc(O)cc3)c3ccccc3n2)o1 [Example III of U.S. 3,542,784 - Burch, 2-(5-nitro-2-furyl)-4-(p-hydroxyaniline)quinazoline, reference compound]",growth rate / feed efficiency response (in words),[1]; Table VI,essentially no effect on growth rate or feed efficiency
same,Average 4 Week Performance: Feed Efficiency,[5]; 25g/T,1.525
same,Average 4 Week Performance: Gain,[5]; 25g/T,809.5 g
same,Improved Response Over Basal Ration: Feed Efficiency,[5]; 25g/T,+1.7%
same,Improved Response Over Basal Ration: Gain,[5]; 25g/T,+5.8%
same,growth rate and feed efficiency response (in words),"[5]; 25 g/T, Table IV","appeared to give a growth response in this test but with a slight, it any, effect on feed efficiency"
same,Average 4 Week Performance: Feed Efficiency,[4],1.737
same,Average 4 Week Performance: Gain,[4],668.1 g
same,Improved Response Over Basal Ration: Feed Efficiency,[4],+2.7%
same,Improved Response Over Basal Ration: Gain,[4],-2.1%
same,growth rate / feed efficiency response (in words),[4]; Table VII,essentially no effect on growth rate or feed efficiency
